The test concerns the target T1, human GPR119 (Homo sapiens, UniProt Q8TDV5).
T1 construct: expression vector for human GPR119 cDNA (Acc. No. NP_848566); expressed in transfected cells
T1 sequence (Q8TDV5 1-335): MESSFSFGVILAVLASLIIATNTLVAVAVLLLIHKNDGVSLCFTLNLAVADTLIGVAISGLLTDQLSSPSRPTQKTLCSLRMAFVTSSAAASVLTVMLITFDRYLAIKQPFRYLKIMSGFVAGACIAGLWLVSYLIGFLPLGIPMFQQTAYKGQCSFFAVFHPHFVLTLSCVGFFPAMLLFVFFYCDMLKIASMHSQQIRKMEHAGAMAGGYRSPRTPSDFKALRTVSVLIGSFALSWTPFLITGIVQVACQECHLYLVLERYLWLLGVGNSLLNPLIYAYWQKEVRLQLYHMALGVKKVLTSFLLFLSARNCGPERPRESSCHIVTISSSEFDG
Description: AlphaScreen cAMP assay, activation of GPR119 in Min-6/hGPR119 cells. It is filed as cell-based. The following applies: MIN6 cells stably transfected with human GPR119; intracellular cAMP; 45 minutes incubation at room temperature. The procedure:
The compounds of formula I according to the invention modulate the activity of the G-protein-coupled receptor GPR119. The effect of the compounds on the activation of GPR119 and on the stimulation of intracellular cAMP concentration is determined using the AlphaScreen cAMP Assay Kit (Cat. No. #6760625R) made by PerkinElmer.
MIN6 cells [Miyazaki J et al. Endocrinology. 1990 July; 127(1):126-32] are stably transfected with an expression vector for human GPR119 cDNA (Acc. No. NP_848566). Min-6/hGPR119 cells are cultured in DMEM, 10% FBS, 500 μM β-mercaptoethanol, 0.3 mg/mL Geniticin, 2 mM GlutaMAX at 37° C. 5% CO2. For the assay, the cells are seeded in Optiplates (white, 384-well, 160 W— barcoded, TC, sterile with lid, Cat. No. #6007688 (Perkin Elmer); 10000 cells/well; 50 μl). The plates covered with lids are then incubated for 24 hours at 37° C./5% CO2. After the medium is aspirated from the wells completely, 10 μl of the test compound are added, the compounds are diluted using stimulating buffer (140 mM NaCl, 3.6 mM KCl, 0.5 mM NaH2PO4, 0.5 mM MgSO4, 1.5 mM CaCl2, 10 mM Hepes, 5 mM NaHCO3; pH 7.4. 0.5 mM IBMX and 0.1% BSA, the final DMSO concentration is 1%). After 45 minutes incubation at room temperature (approx. 20° C.), the cAMP concentrations are determined using the AlphaScreen cAMP Assay Kit (Cat. No. #6760625R from PerkinElmer).

The structures appear in SMILES notation.

One may read the EC50 as the midpoint of the concentration-response curve. Lower therefore signals greater potency. In turn, `COc1cnc(N2CCC([C@H]3Cc4cc(C5=CCN(S(C)(=O)=O)CC5)ncc4O3)CC2)nc1` (single isomer, unassigned) [Example 92] yielded an EC50 of 10 nM. This counts as double-digit nanomolar. `CCc1cnc(N2CCC(C3Cc4cc(-c5ccc(C(=O)N6CCC(O)C6)cc5)ccc4O3)CC2)nc1` (centres unmarked) [Example 70] came in with an EC50 of 108 nM. Compared with the last compound, the EC50 is about 11-fold higher.

With `Cc1cnc(N2CCC([C@@H]3Cc4cc(C5=CCN(S(C)(=O)=O)CC5)ncc4O3)CC2)nc1` (single isomer, unassigned) [Example 32], it took 29 nM to reach a half-maximal effect (EC50). In turn, `CCc1cnc(N2CCC([C@H]3Cc4cc(C5=CCN(S(C)(=O)=O)CC5)ncc4O3)CC2)nc1` (single isomer, unassigned) [Example 31] showed an EC50 of 3 nM.

In the case of `CC(C)c1nc(N2CCC([C@H]3Cc4cc(C5=CCN(S(C)(=O)=O)CC5)ncc4O3)CC2)no1` (single isomer, unassigned) [Example 45], it took 13 nM to reach a half-maximal effect (EC50). Compared with the last compound, the EC50 is about 4.3-fold higher.

With `CCc1cnc(N2CCC(C3Cc4cc(-c5ccc(C(=O)N(C)CCOC)cc5)ccc4O3)CC2)nc1` (centres unmarked) [Example 62], the EC50 amounted to 20 nM. `CCc1cnc(N2CCC(C3Cc4cc(-c5ccc(C(=O)NCCC(C)O)cc5)ccc4O3)CC2)nc1` (centres unmarked) [Example 66] yielded an EC50 of 63 nM. This EC50 is about 3.1-fold higher than that of the compound before. For `CCCc1nc(N2CCC([C@]3(C)Cc4cc(C5=CCN(S(C)(=O)=O)CC5)ncc4O3)CC2)no1` (single isomer, unassigned) [Example 47] the value was 6 nM. The value for `Cc1cnc(N2CCC([C@H]3Cc4cc(C5=CCN(S(C)(=O)=O)CC5)ncc4O3)CC2)nc1` (single isomer, unassigned) [Example 33] was 6 nM; that for `CCc1cnc(N2CCC(C3Cc4cc(-c5ccc(C(=O)N6CCC(OC)CC6)cc5)ccc4O3)CC2)nc1` (centres unmarked) [Example 69] was 48 nM; that for `CC(C)c1nc(N2CCC([C@@H]3Cc4cc(C5=CCN(S(C)(=O)=O)CC5)ncc4O3)CC2)no1` (single isomer, unassigned) [Example 46] was 18 nM. For `CCCc1nc(N2CCC(C3Cc4cc(C5=CCN(S(C)(=O)=O)CC5)ncc4O3)CC2)no1` (single isomer, unassigned) [Example 44] the value was 6 nM; for `C[C@@]1(C2CCN(c3ccc(C(F)(F)F)cn3)CC2)Cc2cc(C3=CCN(S(C)(=O)=O)CC3)ncc2O1` (single isomer, unassigned) [Example 37], 6 nM.

For `CC(C)c1noc(N2CCC([C@@H]3Cc4cc(C5=CCN(S(C)(=O)=O)CC5)ncc4O3)CC2)n1` (single isomer, unassigned) [Example 55], the EC50 stood at 16 nM. For `CC(C)c1nc(N2CCC(C3Cc4cc(-c5ccc(S(C)(=O)=O)cc5)ncc4O3)CC2)no1` (centres unmarked) [Example 8, 2-[1-(5-Isopropyl-[1,2,4]oxadiazol-3-yl)-piperidin-4-yl]-5-(4-methanesulfonyl-phenyl)-2,3-dihydro-furo[2,3-c]pyridine] the value was 11 nM.

The compound `CCc1cnc(N2CCC(C3Cc4cc(-c5ccc(C(=O)NCC(C)(C)CO)cc5)ccc4O3)CC2)nc1` (centres unmarked) [Example 63] showed an EC50 of 112 nM.

The compound `CS(=O)(=O)c1ccc(-c2cc3c(cn2)O[C@@H](C2CCN(c4ncc(Cl)cn4)CC2)C3)cc1` (single isomer, unassigned) [Example 87] had an EC50 of 13 nM. This EC50 lies about 8.6-fold lower than the previous one. For `CCc1cnc(N2CCC(C3Cc4cc(-c5ccc(C(=O)NCC(C)O)cc5)ccc4O3)CC2)nc1` (centres unmarked) [Example 74] the value was 52 nM. In turn, `CCc1cnc(N2CCC(C3Cc4cc(-c5ccc(C(=O)N6CCOCC6)cc5)ccc4O3)CC2)nc1` (centres unmarked) [Example 60] had a concentration giving a half-maximal response (EC50) of 11 nM. The value for `CCc1cnc(N2CCC(C3Cc4cc(-c5ccc(C(=O)NCC6COCCO6)cc5)ccc4O3)CC2)nc1` (centres unmarked) [Example 77] was 19 nM. For `CCCc1noc(N2CCC(C3Cc4cc(C5=CCN(S(C)(=O)=O)CC5)ncc4O3)CC2)n1` (centres unmarked) [Example 19, 5-(1-Methanesulfonyl-1,2,3,6-tetrahydro-pyridin-4-yl)-2-[1-(3-propyl-[1,2,4]oxadiazol-5-yl)-piperidin-4-yl]-2,3-dihydro-furo[2,3-c]pyridine] the value was 25 nM. For `CC(C)c1noc(N2CCC(C3Cc4cc(-c5ccc(CS(C)(=O)=O)cc5F)ncc4O3)CC2)n1` (centres unmarked) [Example 21, 5-(2-Fluoro-4-methanesulfonylmethyl-phenyl)-2-[1-(3-isopropyl-[1,2,4]oxadiazol-5-yl)-piperidin-4-yl]-2,3-dihydro-furo[2,3-c]pyridine] the value was 28 nM.

Turning to `CCCc1noc(N2CCC([C@]3(C)Cc4cc(-c5ccc(S(C)(=O)=O)cc5)ncc4O3)CC2)n1` (single isomer, unassigned) [Example 27], it took 15 nM to reach a half-maximal effect (EC50). This EC50 lies about 1.9-fold lower than the previous one. For `CCCc1nc(N2CCC(C3Cc4cc(-c5ccc(CS(C)(=O)=O)cc5F)ncc4O3)CC2)no1` (centres unmarked) [Example 25, 5-(2-Fluoro-4-methanesulfonylmethyl-phenyl)-2-[1-(5-propyl-[1,2,4]oxadiazol-3-yl)-piperidin-4-yl]-2,3-dihydro-furo[2,3-c]pyridine] the value was 62 nM; for `Cc1cnc(N2CCC([C@]3(C)Cc4cc(C5=CCN(S(C)(=O)=O)CC5)ncc4O3)CC2)nc1` (single isomer, unassigned) [Example 41], 6 nM. For `CCc1cnc(N2CCC(C3Cc4cc(-c5ccc(C(=O)N(C)CCO)cc5)ccc4O3)CC2)nc1` (centres unmarked) [Example 78] the value was 39 nM. Compound `CCc1cnc(N2CCC(C3Cc4cc(-c5ccc(S(C)(=O)=O)cc5)ncc4O3)CC2)nc1` (centres unmarked) [Example 5, 2-[1-(5-Ethyl-pyrimidin-2-yl)-piperidin-4-yl]-5-(4-methanesulfonyl-phenyl)-2,3-dihydro-furo[2,3-c]pyridine] had an EC50 of 12 nM. The value for `Cc1cnc(N2CCC([C@]3(C)Cc4cc(C5=CCN(S(C)(=O)=O)CC5)ncc4O3)CC2)cn1` (single isomer, unassigned) [Example 53] was 20 nM; that for `CCc1cnc(N2CCC([C@H]3Cc4cc(-c5ccc(S(C)(=O)=O)cc5)ncc4O3)CC2)nc1` (single isomer, unassigned) [Example 85] was 7 nM; that for `CC1(C2CCN(c3nnc(C(F)(F)F)s3)CC2)Cc2cc(C3=CCN(S(C)(=O)=O)CC3)ncc2O1` (single isomer, unassigned) [Example 48, 5-(1-Methanesulfonyl-1,2,3,6-tetrahydro-pyridin-4-yl)-2-methyl-2-[1-(5-trifluoromethyl-[1,3,4]thiadiazol-2-yl)-piperidin-4-yl]-2,3-dihydro-furo[2,3-c]pyridine] was 12 nM.

`CS(=O)(=O)N1CC=C(c2cc3c(cn2)O[C@H](C2CCN(c4ncc(Cl)cn4)CC2)C3)CC1` (single isomer, unassigned) [Example 86] showed an EC50 of 12 nM. In other words, the double-digit nanomolar range. `CC(C)c1noc(N2CCC(C3Cc4cc(-c5ccc(S(C)(=O)=O)cc5)ncc4O3)CC2)n1` (centres unmarked) [Example 6, 2-[1-(3-Isopropyl-[1,2,4]oxadiazol-5-yl)-piperidin-4-yl]-5-(4-methanesulfonyl-phenyl)-2,3-dihydro-furo[2,3-c]pyridine] yielded an EC50 of 32 nM. As for `CS(=O)(=O)N1CC=C(c2cc3c(cn2)O[C@@H](C2CCN(c4ccc(C(F)(F)F)cn4)CC2)C3)CC1` (single isomer, unassigned) [Example 82], the EC50 was found to be 3 nM. For `CCc1cnc(N2CCC(C3Cc4cc(-c5ccc(C(=O)N(C)CC#N)cc5)ccc4O3)CC2)nc1` (centres unmarked) [Example 71] the value was 16 nM; for `CCc1cnc(N2CCC(C3Cc4cc(-c5ccc(C(=O)NCc6cocn6)cc5)ccc4O3)CC2)nc1` (centres unmarked) [Example 64], 33 nM.
